Data on 24 compounds can be found in patent US7476687B2, “Substituted furo[2,3-g]indazoles for the treatment of glaucoma” (Alcon, Inc., priority 2003, dated 2009).

Counter-ions that a name gives are not always drawn.

Data set [1] concerns the target T1, 5HT2A(rat) (Rattus norvegicus, UniProt P14842). Nature of the data set: 5-HT2 Receptor Binding Assay ([125I]DOI competition, cerebral cortex homogenates). Set-up: Aliquots of post mortem rat or human cerebral cortex homogenates (400 μL) dispersed in 50 mM TrisHCl buffer; from tissue; host or cells: post mortem rat cerebral cortex homogenate. The conditions noted are these: inhibition of [125I]DOI binding. On the procedure:
5-HT2 Receptor Binding Assay
Aliquots of post mortem rat or human cerebral cortex homogenates (400 μL) dispersed in 50 mM TrisHCl buffer (pH 7.4) are incubated with [^125I]DOI (80 pM final) in the absence or presence of methiothepin (10 μM final) to define total and non-specific binding, respectively, in a total volume of 0.5 mL. The assay mixture is incubated for 1 hour at 23° C. in polypropylene tubes and the assays terminated by rapid vacuum filtration over Whatman GF/B glass fiber filters previously soaked in 0.3% polyethyleneimine using ice-cold buffer. Test compounds (at different concentrations) are substituted for methiothepin. Filter-bound radioactivity is determined by scintillation spectrometry on a beta counter. The data are analyzed using a non-linear, iterative curve-fitting computer program [Trends Pharmacol. Sci., 16, 413 (1995)] to determine the compound affinity parameter. The concentration of the compound needed to inhibit the [^125I]DOI binding by 50% of the maximum is termed the IC50 or Ki value.

Data set [2] addresses T1, 5HT2A(rat). Briefly: 5HT2 Functional Assay: [Ca2+]i Mobilization (FLIPR, A7r5 cells). The conditions noted are these: for EC50: [Ca2+]i mobilization, rat vascular smooth muscle cells A7r5; for Emax: percentage of maximum 5-HT-induced response, A7r5 cells. Further details: endogenous in cells; host or cells: A7r5 rat vascular smooth muscle cells. It is filed as cell-based. On the procedure: The receptor-mediated mobilization on intracellular calcium ([Ca^2+]i) was studied using the Fluorescence Imaging Plate Reader (FLIPR) instrument. Rat vascular smooth muscle cells, A7r5, were grown in a normal media of DMEM/10% FBS and 10 μg/mL gentamycin. Confluent cell monolayers were trypsinized, pelleted, and re-suspended in normal media. Cells were seeded in a 50 μL volume at a density of 20,000 cells/well in a black wall, 96-well tissue culture plate and grown for 2 days.
On the day of the experiment, one vial of FLIPR Calcium Assay Kit dye was re-suspended in 50 mL of a FLIPR buffer consisting of Hank's Balanced Salt Solution (HBSS), 20 mM HEPES, and 2.5 mM probenecid, pH 7.4. Cells were loaded with the calcium-sensitive dye by addition of an equal volume (50 μL) to each well of the 96-well plate and incubated with dye for 1 h at 23° C.
Compounds were diluted 1:50 in 20% DMSO/20% Ethanol. For “hit” screening, compounds were further diluted 1:10 in FLIPR buffer and tested at a final concentration of 10 μM.
The compound plate and cell plate were placed in the FLIPR instrument. At the beginning of an experimental run, a signal test was performed to check the basal fluorescence signal from the dye-loaded cells and the uniformity of the signal across the plate. The basal fluorescence was adjusted between 8000-12000 counts by modifying the exposure time, the camera F-stop, or the laser power. Instrument settings for a typical assay were the following: laser power 0.3-0.6 W, camera F-stop F/2, and exposure time 0.4 sec. An aliquot (25 μL) of the test compound was added to the existing 100 μL dye-loaded cells at a dispensing speed of 50 μL/sec. Fluorescence data were collected in real-time at 1.0 sec intervals for the first 60 secs and at 6.0 sec intervals for an additional 120 secs.

T1 sequence (P14842 whole entry): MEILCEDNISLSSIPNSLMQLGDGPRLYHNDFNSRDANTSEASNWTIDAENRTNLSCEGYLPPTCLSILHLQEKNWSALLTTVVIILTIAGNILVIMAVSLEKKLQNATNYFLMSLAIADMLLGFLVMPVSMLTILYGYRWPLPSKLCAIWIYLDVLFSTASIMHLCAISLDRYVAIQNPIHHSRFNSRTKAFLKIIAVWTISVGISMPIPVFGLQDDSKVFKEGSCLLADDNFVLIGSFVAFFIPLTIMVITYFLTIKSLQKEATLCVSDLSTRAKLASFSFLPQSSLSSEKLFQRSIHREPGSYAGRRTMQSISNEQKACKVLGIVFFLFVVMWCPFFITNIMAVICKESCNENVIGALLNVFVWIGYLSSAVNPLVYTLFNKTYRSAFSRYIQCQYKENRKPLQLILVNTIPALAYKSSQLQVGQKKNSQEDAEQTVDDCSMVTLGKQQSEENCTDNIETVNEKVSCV

Turning to `C[C@H](N)Cn1ncc2ccc3oc(C(N)=O)cc3c21` (as salt: fumarate) [Example 3, 1-((S)-2-Aminopropyl)-1H-furo[2,3-g]indazole-7-carboxylic acid amide], the melting point (commonly the temperature, or range, at which the solid turns liquid) is 170 to 172 °C.
As to `COCCNC(=O)c1cc2c(ccc3cnn(C[C@H](C)N)c32)o1` (as salt: fumarate) [Example 8, 1-((S)-2-Aminopropyl)-1H-furo[2,3-g]indazole-7-carboxylic acid (2-methoxyethyl)-amide], the melting point is 75 to 76 °C.
The compound `CC(O)CNC(=O)c1cc2c(ccc3cnn(C[C@H](C)N)c32)o1` (stereo partly drawn) (as salt: fumarate) [Example 9, 1-((S)-2-Aminopropyl)-1H-furo[2,3-g]indazole-7-carboxylic acid (2-hydroxypropyl)-amide] showed a melting point of 190 to 191 °C.
On the same count and under the same terms, as for `C[C@H](N)Cn1ncc2ccc3oc(C(=O)NCC4(O)CC4)cc3c21` (as salt: fumarate) [Example 10, 1-((S)-2-Aminopropyl)-1H-furo[2,3-g]indazole-7-carboxylic acid (1-hydroxy-cyclopropylmethyl)-amide], the figure is 77 to 79 °C; as for `C[C@H](N)Cn1ncc2ccc3oc(C(=O)NCC(C)(C)CO)cc3c21` (as salt: fumarate) [Example 11, 1-((S)-2-Aminopropyl)-1H-furo[2,3-g]indazole-7-carboxylic acid (3-hydroxy-2,2-dimethyl-propyl)-amide], 103 °C.
Still for that read-out and setting: as for `CC(=O)NCCCNC(=O)c1cc2c(ccc3cnn(C[C@H](C)N)c32)o1` (as salt: fumarate) [Example 12, 1-((S)-2-Amino-propyl)-1H-furo[2,3-g]indazole-7-carboxylic acid (3-acetylaminopropyl)-amide], the figure is 81 °C; as for `C[C@H](N)Cn1ncc2ccc3oc(C(=O)NCCCN4CCCC4=O)cc3c21` (as salt: fumarate) [Example 13, 1-((S)-2-Aminopropyl)-1H-furo[2,3-g]indazole-7-carboxylic acid [3-(2-oxo-pyrrolidin-1-yl)-propyl]-amide], 82 °C; as for `Cc1ccc(CNC(=O)c2cc3c(ccc4cnn(C[C@H](C)N)c43)o2)o1` (as salt: fumarate) [Example 14, 1-((S)-2-Aminopropyl)-1H-furo[2,3-g]indazole-7-carboxylic acid (5-methyl-furan-2-ylmethyl)amide], 118 to 120 °C.
The same measure, in the same setting: as for `Cc1noc(-c2cc3c(ccc4cnn(C[C@H](C)N)c43)o2)n1` (as salt: fumarate) [Example 15, (S)-1-Methyl-2-[7-(3-methyl-1,2,4-oxadiazol-5-yl)-furo[2,3-g]indazol-1-yl]-ethylamine], the figure is 187 to 189 °C.
The compound `CCOC(=O)c1cc2c(ccc3cnn(C[C@H](C)N)c32)o1.O=C(O)/C=C/C(=O)O` [Example 1, 1-((S)-2-Aminopropyl)-1H-furo[2,3-g]indazole-7-carboxylic acid ethyl ester fumarate] showed a melting point of 184 to 185 °C. Besides, the IC50 (commonly the point on the concentration scale where inhibition reaches its midpoint) at 5HT2A(rat) [1] stood at 0.21 nM. At 5HT2A(rat) [2], the EC50 (in general, the concentration that produces a half-maximal response) amounted to 63 nM and the maximal effect (Emax) (usually the maximal effect, on the per cent scale that the assay sets) came out at 101%.
`C[C@H](N)Cn1ncc2ccc3oc(CO)cc3c21` [Example 2, [1-((S)-2-Aminopropyl)-1H-furo[2,3-g]indazol-7-yl]-methanol] yielded a melting point of 110 to 112 °C. The compound further displayed a 50% inhibitory concentration (IC50) at 5HT2A(rat) [1] of 0.53 nM. On 5HT2A(rat) [2], this compound yielded a half-maximal effective concentration (EC50) of 18 nM and an Emax of 86%.
On to `C[C@H](N)Cn1ncc2ccc3oc(C(=O)NCCO)cc3c21` [Example 5, 1-((S)-2-Aminopropyl)-1H-furo[2,3-g]indazole-7-carboxylic acid (2-hydroxyethyl)-amide fumarate], for which the IC50 on 5HT2A(rat) [1] came out at 3.5 nM. On 5HT2A(rat) [2], the EC50 turned out to be 55 nM and the maximum response (Emax) amounted to 94%.
For `C[C@H](N)Cn1ncc2ccc3oc(C(=O)NCCN4CCOCC4)cc3c21` [Example 7, 1-((S)-2-Aminopropyl)-1H-furo[2,3-g]indazole-7-carboxylic acid (2-morpholin-4-yl-ethyl)-amide], in that order: 1.3 nM, 109 nM and 89%.
For `COCCNC(=O)c1cc2c(ccc3cnn(C[C@H](C)N)c32)o1` [Example 8, 1-((S)-2-Aminopropyl)-1H-furo[2,3-g]indazole-7-carboxylic acid (2-methoxyethyl)-amide], in that order: 2.3 nM, 54 nM and 94%.
Take `CC(O)CNC(=O)c1cc2c(ccc3cnn(C[C@H](C)N)c32)o1` (stereo partly drawn) [Example 9, 1-((S)-2-Aminopropyl)-1H-furo[2,3-g]indazole-7-carboxylic acid (2-hydroxypropyl)-amide]: the IC50 at 5HT2A(rat) [1] turned out to be 1.5 nM. On 5HT2A(rat) [2], this compound gave an EC50 of 27 nM and a maximal response (Emax) of 98%.
For `C[C@H](N)Cn1ncc2ccc3oc(C(=O)NCC4(O)CC4)cc3c21` [Example 10, 1-((S)-2-Aminopropyl)-1H-furo[2,3-g]indazole-7-carboxylic acid (1-hydroxy-cyclopropylmethyl)-amide], in that order: 1.1 nM, 15 nM and 94%.
In the case of `CC(=O)NCCCNC(=O)c1cc2c(ccc3cnn(C[C@H](C)N)c32)o1` [Example 12, 1-((S)-2-Amino-propyl)-1H-furo[2,3-g]indazole-7-carboxylic acid (3-acetylaminopropyl)-amide], the 50% inhibitory concentration (IC50) on 5HT2A(rat) [1] was 1.4 nM. On 5HT2A(rat) [2], this compound showed a 50% effective concentration (EC50) of 37 nM and a maximum response (Emax) of 95%.
The compound `C[C@H](N)Cn1ncc2ccc3oc(C(=O)NCCCN4CCCC4=O)cc3c21` [Example 13, 1-((S)-2-Aminopropyl)-1H-furo[2,3-g]indazole-7-carboxylic acid [3-(2-oxo-pyrrolidin-1-yl)-propyl]-amide] returned an IC50 at 5HT2A(rat) [1] of 2 nM. At 5HT2A(rat) [2], the midpoint of the response, the EC50, lay at 72 nM and the maximal response (Emax) was found to be 87%.
As for `Cc1ccc(CNC(=O)c2cc3c(ccc4cnn(C[C@H](C)N)c43)o2)o1` [Example 14, 1-((S)-2-Aminopropyl)-1H-furo[2,3-g]indazole-7-carboxylic acid (5-methyl-furan-2-ylmethyl)amide], the 50% inhibitory concentration (IC50) at 5HT2A(rat) [1] is 0.3 nM. Further, at 5HT2A(rat) [2], the EC50 worked out at 181 nM and the maximal response (Emax) came to 94%.
Turning to `Cc1noc(-c2cc3c(ccc4cnn(C[C@H](C)N)c43)o2)n1` [Example 15, (S)-1-Methyl-2-[7-(3-methyl-1,2,4-oxadiazol-5-yl)-furo[2,3-g]indazol-1-yl]-ethylamine], on 5HT2A(rat) [1], the IC50 turned out to be 0.9 nM. On 5HT2A(rat) [2], this compound showed a concentration giving a half-maximal response (EC50) of 283 nM and a maximum response (Emax) of 101%.
The corresponding values for `CNC(=O)Cc1cc2c(ccc3cnn(C[C@H](C)N)c32)o1` [Example 16, 2-[1-((S)-2-Amino-propyl)-1H-furo[2,3-g]indazol-7-yl]-N-methyl-acetamide] are 0.7 nM, 28 nM and 97%.
`C[C@H](N)Cn1ncc2ccc3oc(CNC(=O)c4cccnc4)cc3c21` [Example 17] came in with an IC50 on 5HT2A(rat) [1] of 3 nM. Further, at 5HT2A(rat) [2], the half-maximal effective concentration (EC50) worked out at 22 nM and the Emax was 95%.
For `CCNC(=O)NCc1cc2c(ccc3cnn(C[C@H](C)N)c32)o1` [Example 18, 1-[1-((S)-2-Aminopropyl)-1H-furo[2,3-g]indazol-7-ylmethyl]-3-ethylurea], in that order: 4.1 nM, 23 nM and 87%.
On to `C[C@H](N)Cn1ncc2ccc3oc(CN4CCN(c5ccccn5)CC4)cc3c21` [Example 20, (S)-1-Methyl-2-[7-(4-pyridin-2-yl-piperazin-1-ylmethyl)-furo[2,3-g]indazol-1-yl]-ethylamine], for which, at 5HT2A(rat) [2], the concentration for a half-maximal effect (EC50) was 141 nM and the Emax is 81%.
